Test results: US20240043400A1, “Octahydroisoquinolinyl Derivatives” (UCB Biopharma SRL, priority 2020, published 2024)

Assays:
[1] = target: T1, human GABAA receptor α1β2 and γ2 subunits (Homo sapiens, UniProt P14867+P18507+P47870); assay: Automated patch clamp studies on the GABAA receptor cells; format: cell-based; settings: CHO-K1, 10 μM compound, 15 μM GABA, Table B
T1 construct: expressed in transfected cells
Protocol: CHO-K1 cells stably expressing human GABAA receptor α1β2 and γ2 subunits were used. The cells were harvested using trypsin and maintained in serum-free medium at room temperature. The cells were washed and re-suspended in extracellular solution before testing.
Experiments on human GABAA (α1β2γ2) channels were conducted using an automated patch clamp assay (lonFlux™ HT). The external solution for recording GABAA currents was composed of sodium chloride 137 mM, potassium chloride 4 mM, calcium chloride 1.8 mM, magnesium chloride 1 mM, HEPES 10 mM, and glucose 10 mM. Both external and internal solutions were titrated with NaOH or KOH to obtain a pH of 7.35 and 7.3, respectively. The internal pipette solution contained potassium fluoride 70 mM, potassium chloride 60 mM, sodium chloride 70 mM, HEPES 5 mM, EGTA 5 mM, and Magnesium ATP 4 mM. The final concentration of vehicle used to dilute compounds was 0.33% DMSO in each well. Bicuculline (0.032 to 100 μM) was used as positive control inhibitor. GABA (15 μM) was used as agonist. All recordings were obtained from a holding potential of −60 mV.
The compound addition sequence was the following: one addition of the EC80 concentration of GABA was added to establish baseline response. Each concentration of compound was applied for 30 seconds followed by the addition of 15 μM GABA in the presence of the compound for 2 seconds. The process was repeated with the next ascending concentration of compound. Peak inward currents in response to the GABA additions in the presence of a single concentration of compound were measured. All compound data have been normalized to the baseline peak current induced by addition of 15 μM GABA for 2 seconds.

[2] = target: T2, CYP3A4 (Homo sapiens, UniProt P08684); assay: In vitro assessment of CYP3A4 inhibition potential using cryopreserved human microsomes; format: in vitro ADME; settings: human, cryopreserved human microsomes (pooled donors), probe midazolam 2.5 μM (1-hydroxymidazolam formation), 20 μM compound, human microsomes 0.25 mg/ml, Table C
T2 construct: cryopreserved human microsomes (pooled donors); from tissue
Protocol: The objective of the human microsome assay is to characterize the inhibition potential of Compound of formula (I) by measuring the CYP3A4 activities after its co-incubation with midazolam, a specific CYP3A4 substrate.
To this aim, cryopreserved human microsomes (pooled donors) are divided on a 48 well collagen coated plate so that the final concentration is 0.25 mg/ml. The UCB compound is then added in the wells at 20 μM concentration in duplicate. After 30 min incubation, midazolam is added at 2.5 μM concentration. After 15 min, an aliquot is removed and placed into an equal volume of methanol containing internal standard. The samples are centrifuged at 2500 rpm at 4° C. for 20 min. An aliquot of supernatant is diluted with deionised water and levels of 1-hydroxymidazolam is quantified using generic LC MS/MS methods.
The concentrations are compared to those obtained after midazolam incubation at the same concentration but without UCB compound pre-incubation. The results are expressed as % of inhibition.

[3] = target: T3, dopamine D1 receptor (Homo sapiens, UniProt P21728); assay: cAMP HTRF potentiation assay (in the presence of dopamine); format: cell-based; settings: potentiation of cAMP with [EC20] of dopamine (1.1 nM); LMtk (Ltk−) mouse fibroblast cells expressing the dopamine D1 receptor
T3 construct: host or cells: LMtk (Ltk-) mouse fibroblast cells, kept under Geneticin
Protocol: The potentiation assay measures the ability of compounds to increase the levels of cAMP produced by a low-threshold concentration of dopamine. The concentration of dopamine used ([EC20]) is designed to produce 20% stimulation compared to the maximal response (100%) seen with increasing the concentration of dopamine. To measure this potentiation we incubate increasing concentrations of the compound with the [EC20] of dopamine and measure the potentiation as increases in cAMP production. The pEC50 of a compound is the −log 10 of the concentration of the compound which produces 50% of the potentiation of the cAMP levels and the Erel is the relative efficacy, defined as the maximal % potentiation produced by the compound compared to the maximal response produced by increasing concentrations of dopamine (Erel of 1=dopamine maximum response).
Cells were cultured at 37° C. in a humidified atmosphere of 5% CO2. Cells were grown in DMEM-F12+GlutaMAX™-1 medium (GIBCO®, Invitrogen, Merelbeke, Belgium) containing 10% fetal bovine serum (BioWhittaker®, Lonza, Verviers, Belgium), 400 μg/mL Geneticin (GIBCO®), 100 IU/mL Penicillin and 100 IU/mL Streptomycin (Pen-Strep solution, BioWhittaker®).
The measurement of changes in intracellular cyclic adenosinemonophopshpate (cAMP) was determined using the HTRF cAMP dynamic assay kit from CisBio (Codolet, France). Using homogenous time-resolved fluoresence technology, the assay is based on competition between native cAMP produced by cells and cAMP labelled with the dye d2. The tracer binding is determined by an anti-cAMP antibody labeled with cryptate. The effects of the compound alone (agonism) was determined by performing the assay in the absence of dopamine, whilst the effect of the compound as a positive allosteric modulator (PAM) was determined in the presence of an EC20 concentration of dopamine. Cells (20,000 per well) are incubated in 384 plates for 1 h at rt in a final volume of 20 μLHBSS (Lonza, with calcium, magnesium and HEPES buffer 20 mM, pH 7.4) containing: isobutyl methylxanthine (Sigma, 0.1 mM final), varying concentrations of test compound (typically 10^−9.5 M to 10^−4.5 M) in the presence and absence of dopamine (1.1 nM final). The reaction is then terminated and the cells lysed by adding the d2 detection reagent in lysis buffer (10 μL) and the cryptate reagent in lysis buffer (10 μL) according to manufacturer's instructions. This is then incubated for a further 60 min at rt and changes in HTRF fluorescent emission ratio determined according to manufacturer's instructions using an Envision plate reader (Perkin Elmer, Zaventem, Belgium) with laser excitation. All incubations were performed in duplicate and results were compared to a concentration-effect curve to dopamine. (10^−11 M to 10^−6 M).
Data was analyzed using Excel and PRISM (GraphPad Software) to obtain pEC50 and Erel using the 4-parameter logistic equation (DeLean et al, 1978) where Erel is the fitted maximal response of the test compound minus basal expressed as a percentage relative to that obtained with dopamine which was defined as 100%.

T2 sequence (P08684 whole entry): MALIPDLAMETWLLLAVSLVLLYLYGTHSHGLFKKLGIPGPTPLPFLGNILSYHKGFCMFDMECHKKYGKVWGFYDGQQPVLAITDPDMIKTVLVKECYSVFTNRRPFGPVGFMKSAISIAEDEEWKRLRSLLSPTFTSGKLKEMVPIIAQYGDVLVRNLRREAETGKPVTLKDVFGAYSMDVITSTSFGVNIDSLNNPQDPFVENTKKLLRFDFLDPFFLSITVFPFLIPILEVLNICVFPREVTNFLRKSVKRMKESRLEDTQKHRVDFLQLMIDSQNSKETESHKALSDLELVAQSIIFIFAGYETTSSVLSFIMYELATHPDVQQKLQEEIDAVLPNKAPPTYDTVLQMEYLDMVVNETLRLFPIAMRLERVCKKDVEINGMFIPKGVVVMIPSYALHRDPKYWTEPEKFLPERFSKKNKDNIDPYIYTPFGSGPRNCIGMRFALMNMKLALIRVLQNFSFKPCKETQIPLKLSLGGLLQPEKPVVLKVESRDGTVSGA
T1 sequence (P14867 28-456): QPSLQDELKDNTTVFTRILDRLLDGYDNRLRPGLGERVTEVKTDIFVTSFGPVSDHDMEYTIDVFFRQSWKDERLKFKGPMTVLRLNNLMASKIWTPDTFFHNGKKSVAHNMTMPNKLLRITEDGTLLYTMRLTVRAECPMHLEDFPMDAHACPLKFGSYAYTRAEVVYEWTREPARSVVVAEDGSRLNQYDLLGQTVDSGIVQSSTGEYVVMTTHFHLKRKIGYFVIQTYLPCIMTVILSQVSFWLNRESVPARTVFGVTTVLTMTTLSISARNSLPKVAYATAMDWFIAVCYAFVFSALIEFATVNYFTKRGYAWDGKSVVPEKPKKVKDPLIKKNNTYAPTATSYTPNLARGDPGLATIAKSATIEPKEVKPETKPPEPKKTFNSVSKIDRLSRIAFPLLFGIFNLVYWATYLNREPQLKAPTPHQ
T1 sequence (P47870 25-512 limits assumed): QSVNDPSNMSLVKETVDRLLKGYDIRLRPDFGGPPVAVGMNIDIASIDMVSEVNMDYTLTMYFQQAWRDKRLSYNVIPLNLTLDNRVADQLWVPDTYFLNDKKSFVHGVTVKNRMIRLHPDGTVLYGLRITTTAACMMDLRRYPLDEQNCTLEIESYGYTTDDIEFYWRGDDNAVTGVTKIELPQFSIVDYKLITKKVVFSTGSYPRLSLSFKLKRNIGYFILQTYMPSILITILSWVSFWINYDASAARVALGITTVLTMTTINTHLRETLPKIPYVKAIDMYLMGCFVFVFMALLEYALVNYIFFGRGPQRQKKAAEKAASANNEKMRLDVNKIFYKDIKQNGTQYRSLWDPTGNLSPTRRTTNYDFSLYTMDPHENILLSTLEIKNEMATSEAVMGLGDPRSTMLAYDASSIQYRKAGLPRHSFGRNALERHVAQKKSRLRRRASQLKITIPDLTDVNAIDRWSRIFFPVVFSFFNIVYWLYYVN
T1 sequence (P18507 40-475): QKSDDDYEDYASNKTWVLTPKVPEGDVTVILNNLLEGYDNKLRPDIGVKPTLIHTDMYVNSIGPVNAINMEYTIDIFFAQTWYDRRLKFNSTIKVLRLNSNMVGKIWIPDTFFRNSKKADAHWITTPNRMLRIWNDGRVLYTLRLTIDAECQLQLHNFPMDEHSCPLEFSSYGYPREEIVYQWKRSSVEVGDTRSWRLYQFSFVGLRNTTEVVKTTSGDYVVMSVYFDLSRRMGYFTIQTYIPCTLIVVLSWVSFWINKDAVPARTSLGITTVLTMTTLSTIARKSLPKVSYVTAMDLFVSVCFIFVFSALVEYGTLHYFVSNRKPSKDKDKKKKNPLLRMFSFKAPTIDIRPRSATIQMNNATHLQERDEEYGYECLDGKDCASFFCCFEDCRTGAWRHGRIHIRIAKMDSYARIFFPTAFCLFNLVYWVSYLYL
T3 sequence (P21728 whole entry): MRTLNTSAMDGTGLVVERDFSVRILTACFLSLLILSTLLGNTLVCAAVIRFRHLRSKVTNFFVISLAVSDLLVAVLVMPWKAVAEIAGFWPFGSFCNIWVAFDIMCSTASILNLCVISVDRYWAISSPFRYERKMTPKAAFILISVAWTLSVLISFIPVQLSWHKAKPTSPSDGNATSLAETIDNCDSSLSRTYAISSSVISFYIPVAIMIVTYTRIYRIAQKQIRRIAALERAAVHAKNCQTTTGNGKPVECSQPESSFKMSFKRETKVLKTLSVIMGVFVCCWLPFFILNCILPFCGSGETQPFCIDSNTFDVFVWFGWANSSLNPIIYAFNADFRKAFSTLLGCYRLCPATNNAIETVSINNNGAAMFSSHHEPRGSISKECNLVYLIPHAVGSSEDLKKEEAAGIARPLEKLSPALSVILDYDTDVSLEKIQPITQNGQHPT

| SMILES | inhibition at 10 µM [1] | inhibition at 15 min, 20 μM [2] | EC50 [3] |
| --- | --- | --- | --- |
| C[C@H]1[C@H]2CCC[C@@H]([C@H](O)C(F)(F)F)[C@@H]2CCN1C(=O)Cc1c(Cl)cnc(C(C)(C)O)c1Cl [Example 13, 1-[(1S,4aR,5R,8aS)-1-methyl-5-[(1S)-2,2,2-trifluoro-1-hydroxy-ethyl]-3,4,4a,5,6,7,8,8a-octahydro-1H-isoquinolin-2-yl]-2-[3,5-dichloro-2-(1-hydroxy-1-methyl-ethyl)-4-pyridyl]ethanone] | -8% | 20 to 40% | 50.1 nM |
| C[C@H]1[C@H]2CCC[C@@H]([C@H](O)C(F)(F)F)[C@@H]2CCN1C(=O)Cc1c(Cl)cc(F)c2[nH]nc(Cl)c12 [Example 14, 1-[(1 S,4aR,5R,8aS)-1-methyl-5-[(1 S)-2,2,2-trifluoro-1-hydroxy-ethyl]-3,4,4a,5,6,7,8,8a-octahydro-1H-isoquinolin-2-yl]-2-(3,5-dichloro-7-fluoro-1H-indazol-4-yl)ethanone] | -8% | 40 to 60% | 31.6 nM |
